According to patent US9047904B2, “Magnetic recording medium” (priority 2009, dated 2015):

Details: 50 mg in 20 mL water + 30 mL tetrahydrofuran; titrated with 0.1N NaOH; pH at half of the neutralization titration quantity
Procedure: In the present invention, the term “acid strength” refers to a value that is measured by the following method.
A 50 mg sample of organic acid A or B is dissolved in a mixed solution of 20 mL of water and 30 mL of tetrahydrofuran. Titration to neutral is conducted using a model GT-100 Win automatic titrator made by Mitsubishi Chemical Analytech with 0.1N NaOH (Wako Pure Chemical Industries). The pH corresponding to half of the titration quantity that is added dropwise to attain the neutralization point is read, and that pH is adopted as the acid strength.
<Acid Strength of Organic Acids A and B>
A 50 mg sample of organic acid A or B was dissolved in a mixed solution of 20 mL of water and 30 mL of tetrahydrofuran. Titration to neutral was conducted with 0.1N NaOH (Wako Pure Chemical Industries) using a model GT-100 Win automatic titrator made by Mitsubishi Chemical Analytech. The pH corresponding to half of the titration quantity that was added dropwise to attain the neutralization point was read, and that pH was adopted as the acid strength.

Row | Compound | pKa(B) (acid strength of organic acid B) | pKa(A) (acid strength of organic acid A)
1 | O=C(O)CC(O)(CC(=O)O)C(=O)O [Citric acid, citric acid] | 5.84 | –
2 | Phenyl phosphate | – | 4.01
